Measured values taken from publication PMC5573830 (The Journal of Veterinary Medical Science, 2017).

Biological target: rTgAPN2 (recombinant aminopeptidase N2, TgAPN2) (Toxoplasma gondii, UniProt A0A7J6K0L4)
Test: residual H-Ala-MCA hydrolysis, fluorescence
Type: biochemical
Settings: 30 min pre-incubation at 37 °C, substrate H-Ala-MCA

SMILES: CC(C)C[C@H](NC(=O)[C@@H](O)[C@H](N)Cc1ccccc1)C(=O)O [bestatin]
- residual enzyme activity (%): The activity of rTgAPN2 was reduced in a dose-dependent manner in the presence of bestatin or amastatin
